Laboratory results taken from patent publication US7875647B2, “Heteroaryl-pyrazole derivatives as cannabinoid CB1 receptor antagonists” (Green Cross Corporation, priority 2006, dated 2011).
Read-outs that look alike come from different tables or passages of the source.

Molecular target: T1, Cannabinoid-1 receptor (CB1R) (Rattus norvegicus, UniProt P20272)
T1 construct: The tissue obtained from the brain of SD rats was homogenized; from tissue; host or cells: brain of SD rats (membrane pellet of the homogenate)
Assay: Cannabinoid-1 receptor (CB1R) binding affinity assay ([3H]CP-55940, rat CB-1 receptor binding protocol)
Details: brain tissue of SD rats, [3H]CP-55940, 30° C. 60 min
Description: The tissue obtained from the brain of SD rats was homogenized with a Dounce homogenate system in TME (50 mM Tris, 3 mM MgCl2 and 1 mM EDTA, pH 7.4) at 4° C., and the homogenate was centrifuged at 48,000 g for 30 min. at 4° C. The pellet was resuspended in 5 ml of TME and the suspension was divided into aliquots and stored at −70° C. until its use in the following assay.
The tissue concentrations were determined by Bradford protein analysis, and 148 μl of brain tissue of the required concentration was added to the plate. The plate was covered and placed in a 30° C. incubator for 60 min, and then transformed on GF/B filtermat pretreated in polyethylenimine (PEI) using a cell harvester. Each filter was washed five times and dried at 60° C. for 1 hr. Then, the degree of radioactivity retained by the filter was measured using Wallac Microbeta™ (PerkinElmer Life Sciences, Inc., Massachusetts, U.S.A.) and the activity of the compound for inhibiting CB1 receptor was determined therefrom.

T1 sequence (P20272 whole entry): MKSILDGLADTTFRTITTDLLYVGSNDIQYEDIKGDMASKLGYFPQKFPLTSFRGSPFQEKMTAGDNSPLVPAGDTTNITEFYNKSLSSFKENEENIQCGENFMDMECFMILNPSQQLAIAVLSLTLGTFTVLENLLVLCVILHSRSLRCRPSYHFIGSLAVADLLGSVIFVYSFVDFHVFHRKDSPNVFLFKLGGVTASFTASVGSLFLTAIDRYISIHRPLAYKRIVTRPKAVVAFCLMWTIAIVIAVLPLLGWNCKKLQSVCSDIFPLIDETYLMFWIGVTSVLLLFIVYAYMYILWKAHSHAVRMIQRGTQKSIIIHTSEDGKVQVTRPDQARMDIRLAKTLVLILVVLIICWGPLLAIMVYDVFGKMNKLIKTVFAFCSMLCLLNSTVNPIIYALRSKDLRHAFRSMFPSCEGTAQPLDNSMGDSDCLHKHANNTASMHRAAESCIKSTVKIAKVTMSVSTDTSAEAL

SMILES | IC50 (read-out: IC50) | IC50 (IC50(nM))
Cc1c(-c2nnc(C3(c4ccc(Cl)cc4)CC3)o2)nn(-c2ccc(Cl)cc2)c1-c1ccc(Cl)cc1 [Example 119, 2-(1,5-Bis(4-chlorophenyl)-4-methyl-1H-pyrazol-3-yl)-5-(1-(4-chlorophenyl)cyclopropyl)-1,3,4-oxadiazole] | 550 nM | –
COc1ccc(C2(c3nnc(-c4nn(-c5ccc(Cl)cc5Cl)c(-c5ccc(Cl)cc5)c4C)o3)CC2)cc1 [Example 129, 2-(5-(4-chlorophenyl)-1-(2,4-dichlorophenyl)-4-methyl-1H-pyrazol-3-yl)-5-(1-(4-methoxyphenyl)cyclopropyl)-1,3,4-oxadiazole] | – | 9.46 nM
Cc1c(-c2nnc(C3(c4ccc(Cl)cc4Cl)CC3)o2)nn(-c2ccc(Cl)cc2Cl)c1-c1ccc(Cl)cc1 [Example 130, 2-(5-(4-chlorophenyl)-1-(2,4-dichlorophenyl)-4-methyl-1H-pyrazol-3-yl)-5-(1-(2,4-dichlorophenyl)cyclopropyl)-1,3,4-oxadiazole] | 8.14 nM | –
Cc1ccc(C2(c3nnc(-c4nn(-c5ccc(Cl)cc5Cl)c(-c5ccc(Cl)cc5)c4C)o3)CC2)cc1 [Example 131, 2-(5-(4-chlorophenyl)-1-(2,4-dichlorophenyl)-4-methyl-1H-pyrazol-3-yl)-5-(1-p-tolylcyclopropyl)-1,3,4-oxadiazole] | 7.26 nM | –
CCc1c(-c2nnc(C3(c4ccc(Cl)cc4)CC3)o2)nn(-c2ccc(Cl)cc2Cl)c1-c1ccc(Cl)cc1 [Example 133, 2-(5-(4-chlorophenyl)-1-(2,4-dichlorophenyl)-4-ethyl-1H-pyrazol-3-yl)-5-(1-(4-chlorophenyl)cyclopropyl)-1,3,4-oxadiazole] | 5.47 nM | –
Cc1c(-c2nnc(C3(C(F)(F)F)CCC3)o2)nn(-c2ccc(Cl)cc2Cl)c1-c1ccc(Cl)cc1 [Example 135, 2-(5-(4-chlorophenyl)-1-(2,4-dichlorophenyl)-4-methyl-1H-pyrazol-3-yl)-5-(1-(trifluoromethyl)cyclobutyl)-1,3,4-oxadiazole] | 16.3 nM | –
Cc1c(-c2nnc(CC(F)(F)F)o2)nn(-c2ccc(Cl)cc2Cl)c1-c1ccc(Cl)cc1 [Example 136, 2-(5-(4-chlorophenyl)-1-(2,4-dichlorophenyl)-4-methyl-1H-pyrazol-3-yl)-5-(2,2,2-trifluoroethyl)-1,3,4-oxadiazole] | 74.2 nM | –
Cc1c(-c2nnc(C3(c4ccc(Cl)cc4)CCC3)o2)nn(-c2cccc(Cl)c2Cl)c1-c1ccc(Cl)cc1 [Example 137, 2-(5-(4-chlorophenyl)-1-(2,3-dichlorophenyl)-4-methyl-1H-pyrazol-3-yl)-5-(1-(4-chlorophenyl)cyclobutyl)-1,3,4-oxadiazole] | 141 nM | –
COc1ccc(-c2c(C)c(-c3nnc(C4(c5ccc(Cl)cc5)CC4)o3)nn2-c2ccc(Cl)cc2Cl)cc1 [Example 138, 2-(1-(4-chlorophenyl)cyclopropyl)-5-(1-(2,4-dichlorophenyl)-5-(4-methoxyphenyl)-4-methyl-1H-pyrazol-3-yl)-1,3,4-oxadiazole] | 10 nM | –
CCc1c(-c2nnc(C3(c4ccc(Cl)cc4)CC3)o2)nn(-c2ccccc2Cl)c1-c1ccc(Cl)cc1 [Example 144, 2-(1-(2-chlorophenyl)-5-(4-chlorophenyl)-4-ethyl-1H-pyrazol-3-yl)-5-(1-(4-chlorophenyl)cyclopropyl)-1,3,4-oxadiazole] | 2.16 nM | –
CCc1c(-c2nnc(C3(c4ccc(Cl)cc4)CCC3)o2)nn(-c2ccccc2Cl)c1-c1ccc(Cl)cc1 [Example 147, 2-(1-(2-chlorophenyl)-5-(4-chlorophenyl)-4-ethyl-1H-pyrazol-3-yl)-5-(1-(4-chlorophenyl)cyclobutyl)-1,3,4-oxadiazole] | 5.75 nM | –
CCc1c(-c2nnc(C3(c4ccccc4)CC3)o2)nn(-c2ccc(Cl)cc2Cl)c1-c1ccc(Cl)cc1 [Example 150, 2-(5-(4-chlorophenyl)-1-(2,4-dichlorophenyl)-4-ethyl-1H-pyrazol-3-yl)-5-(1-phenylcyclopropyl)-1,3,4-oxadiazole] | 6.05 nM | –
